This is an account of results in patent US20260201008A1, “SECRETIN-DERIVED GLP1R SELECTIVE AGONISTS” (GUBRA A/S, priority 2023, published 2026).

Numbered stars: 1 amine (or outer) side, 2 acyl side, 3 side chain; on linkers, the order of the positions; unused ones are H or OH. Square brackets hold non-standard residues; d marks the D form. Side chains are listed from the residue outwards. Ends that are not written are not given here. Peptide text beside a SMILES is read from it. * marks the point of attachment. C20 diacid = O=C(O)CCCCCCCCCCCCCCCCCCC(=O)*; γGlu = O=C(O)[C@H](CCC(=O)[*:2])N[*:1]; AEEA = NCCOCCOCC(=O)O; Aib = CC(C)(N)C(=O)O

Data set [1] in a line: Fibril formation of crude library peptides (Thioflavin T). It is filed as physicochemical. Further details: key: average ThT fluorescence emission at 480 nm (ex 450 nm), raw units. The conditions noted are these: Physical stability of peptides. Here is the method:
(§1) Peptides were dissolved in buffers (50 mM sodium acetate at pH 4.0, or 50 mM sodium phosphate at pH 7.0) to 267 μM and incubated for 1-2 hours at room temperature. The samples were then divided into two replicates of 80 μl in a black 384 well plate (μ-clear, Greiner Bio-One) and mixed with Thioflavin T (ThT) to a final concentration of 4 μM. The plate was centrifuged for 2 min at 2000 rpm to remove air bubbles, sealed, and placed in a plate reader (CLARIOstar, BMG). Firstly, turbidity of the samples was measured as the absorbance at 600 nm. Secondly, the plate reader temperature was set to 40° C. and the fluorescence was measured every 10 min for 72 hours by exciting the ThT at 450 nm and measuring the emission at 480 nm. Samples were stressed by shaking the plate at 700 rpm (linear) for five minutes before every measurement, and fibril formation was determined as the average emission for each sample.

Data set [2] in a line: Turbidity of crude library peptides (absorbance at 600 nm). Type of data set: physicochemical. The conditions noted are these: Physical stability of peptides. Here is the method:
as §1

In the next data set the target is GLP1R (Homo sapiens, UniProt P43220). Kind of data set: hGLP1R potency, cAMP accumulation in CHO-K1 cells stably overexpressing hGLP1R. It is filed as cell-based. Further details: host or cells: CHO-K1. The conditions noted are these: for Selectivity: SCTR EC50/GLP1R EC50 ratio; for EC50: cAMP accumulation, CHO-K1 cells overexpressing hGLP1R, read-out: pEC50 hGLPR1 (converted). An excerpt:
(§2) Crude library peptides are screened in 10-fold serial dilutions of 5 concentrations, n=1 time. Tip change is done for the first two serial dilutions. Compound starting concentration (top) will be adjusted throughout the study if needed.
(§3) Purified peptides are screened in 3-fold serial dilutions of 11 concentrations, n=2 times. Tip change is done for all serial dilutions. Compound starting concentration (top) will be adjusted throughout the study. If the top concentration is adjusted or a 5-fold difference in calculated EC50 values is observed, n is increased by 1. EC50 values were calculated by nonlinear regression using sigmoid concentration-response with variable slope.
(§4) A CHO-K1 cell line stably overexpressing the hGLP1R was obtained from Euroscreen (FAST-0145L), expanded, aliquoted and frozen. An aliquot was thawed and plated in DPBS with 0.05% casein and 0.5 mM IBMX as 2000 cells/well in a 384-well format. The cells were then immediately stimulated for 30 min at room temperature with graded doses of test compound using human GLP-1(7-36) (synthesized at Gubra) as a positive control. cAMP accumulation was measured using a Cisbio assay for Gs coupled receptors (cat. no. 62AM4PEC), where the assay reagents were added as per the manufacturer's instructions and time-resolved fluorescence energy transfer recorded after one hour on a CLARIOstar (BMG Labtech) plate reader.

The target in another data set is SCTR (Homo sapiens, UniProt P47872). The experiment in a line: hSCTR potency, cAMP accumulation in CHO-K1 cells stably overexpressing hSCTR. The settings on record: cAMP accumulation, CHO-K1 cells overexpressing hSCTR; read-out: pEC50 hSCTR (converted). The arrangement: alternatively Euroscreen ES-712-AF; FAST-0161L; host or cells: CHO-K1. It is filed as cell-based.
SCTR, sequence (P47872 23-440): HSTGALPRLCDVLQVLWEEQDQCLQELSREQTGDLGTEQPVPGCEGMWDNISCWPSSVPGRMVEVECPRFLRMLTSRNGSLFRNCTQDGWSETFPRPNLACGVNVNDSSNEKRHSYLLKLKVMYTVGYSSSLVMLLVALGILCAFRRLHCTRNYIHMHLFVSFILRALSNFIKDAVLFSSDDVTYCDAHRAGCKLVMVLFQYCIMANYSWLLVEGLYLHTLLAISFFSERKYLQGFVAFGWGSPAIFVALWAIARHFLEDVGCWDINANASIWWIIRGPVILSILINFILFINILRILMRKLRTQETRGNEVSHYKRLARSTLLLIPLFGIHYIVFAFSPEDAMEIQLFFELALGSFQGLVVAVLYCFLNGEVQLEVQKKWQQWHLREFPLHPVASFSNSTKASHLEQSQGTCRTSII
From the text: as §2, §3
as §4, with “Frozen division arrested CHO-K1 cells stably overexpressing the hSCTR were obtained from PerkinElmer (ES-712-AF). Alternatively, a CHO-K1” for “A CHO-K1”, “the hSCTR” for “the hGLP1R”, “Euroscreen (FAST-0161L),” for “Euroscreen (FAST-0145L),”, “human secretin” for “human GLP-1(7-36)”

For data set [3], the target named is human secretin receptor (hSCTR) (human, UniProt P47872 23-440). The experiment in a line: cell-based or functional assay.
human secretin receptor (hSCTR), sequence (P47872 23-440): as above

GLP1R, sequence (P43220 24-463): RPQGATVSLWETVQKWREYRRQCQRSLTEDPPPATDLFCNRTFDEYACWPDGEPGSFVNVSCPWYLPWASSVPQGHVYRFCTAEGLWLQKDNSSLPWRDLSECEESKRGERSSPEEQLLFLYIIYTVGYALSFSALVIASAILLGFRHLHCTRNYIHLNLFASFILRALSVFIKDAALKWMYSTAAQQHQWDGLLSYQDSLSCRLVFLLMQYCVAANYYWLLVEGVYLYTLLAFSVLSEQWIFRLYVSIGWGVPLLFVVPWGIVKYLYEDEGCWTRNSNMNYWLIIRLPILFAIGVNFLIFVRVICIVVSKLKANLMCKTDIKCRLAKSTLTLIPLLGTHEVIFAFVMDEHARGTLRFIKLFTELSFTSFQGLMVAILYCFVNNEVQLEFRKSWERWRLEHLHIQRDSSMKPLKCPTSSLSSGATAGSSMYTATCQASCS

Consider “216 (GUB06-046) (H[Aib]EGTFTSDLSRLLEGAALQRFIQWLV-NH2; N-terminus assumed; SMILES CC[C@H](C)[C@H](NC(=O)[C@H](Cc1ccccc1)NC(=O)[C@H](CCCNC(=N)N)NC(=O)[C@H](CCC(N)=O)NC(=O)[C@H](CC(C)C)NC(=O)[C@H](C)NC(=O)[C@H](C)NC(=O)CNC(=O)[C@H](CCC(=O)O)NC(=O)[C@H](CC(C)C)NC(=O)[C@H](CC(C)C)NC(=O)[C@H](CCCNC(=N)N)NC(=O)[C@H](CO)NC(=O)[C@H](CC(C)C)NC(=O)[C@H](CC(=O)O)NC(=O)[C@H](CO)NC(=O)[C@@H](NC(=O)[C@H](Cc1ccccc1)NC(=O)[C@@H](NC(=O)CNC(=O)[C@H](CCC(=O)O)NC(=O)C(C)(C)NC(=O)[C@@H](N)Cc1c[nH]cn1)[C@@H](C)O)[C@@H](C)O)C(=O)N[C@@H](CCC(N)=O)C(=O)N[C@@H](Cc1c[nH]c2ccccc12)C(=O)N[C@@H](CC(C)C)C(=O)N[C@H](C(N)=O)C(C)C)”, for which, in data set [1], the Fibril formation is recorded as 11040. In addition, the “Turbidity (pH 7)” value in data set [2] is given as 0.48.
Regarding `CC(C)C[C@H](NC(=O)[C@H](Cc1ccccc1)NC(=O)[C@H](CCCNC(=N)N)NC(=O)[C@H](CCC(N)=O)NC(=O)C(C)(C)NC(=O)[C@H](C)NC(=O)[C@H](C)NC(=O)[C@H](CCC(=O)O)NC(=O)[C@H](CCC(=O)O)NC(=O)[C@H](CCCCNC(=O)COCCOCCNC(=O)COCCOCCNC(=O)CC[C@H](NC(=O)CCCCCCCCCCCCCCCCCCC(=O)O)C(=O)O)NC(=O)[C@H](CC(C)C)NC(=O)[C@H](CCCNC(=N)N)NC(=O)[C@H](CO)NC(=O)[C@@H](NC(=O)[C@H](CC(=O)O)NC(=O)[C@H](CO)NC(=O)[C@@H](NC(=O)[C@H](Cc1ccccc1)NC(=O)[C@@H](NC(=O)CNC(=O)[C@H](CCC(=O)O)NC(=O)C(C)(C)NC(=O)[C@@H](N)Cc1c[nH]cn1)[C@@H](C)O)[C@@H](C)O)C(C)C)C(=O)N[C@@H](CCC(=O)O)C(=O)N[C@@H](Cc1c[nH]cn1)C(=O)N[C@@H](CC(C)C)C(=O)N[C@H](C(N)=O)C(C)C` [compound 1] (H-H[Aib]EGTFTSDVSRLK([AEEA-AEEA-γGlu-C20 diacid])EEAA[Aib]QRFLEHLV-NH2), on GLP1R, the Selectivity is 4325 and the EC50 is 0.0398 nM. At SCTR, the EC50 was 158 nM. Besides, the Fibril formation in data set [1] worked out at 11494. Also, the “Turbidity (pH 7)” value in data set [2] worked out at 0.08.
For `CC(C)C[C@H](NC(=O)[C@H](Cc1ccccc1)NC(=O)[C@H](CCCNC(=N)N)NC(=O)[C@H](CCC(N)=O)NC(=O)[C@H](C)NC(=O)[C@H](C)NC(=O)[C@H](C)NC(=O)[C@H](Cc1ccccc1)NC(=O)[C@H](CCC(=O)O)NC(=O)[C@H](CCCCNC(=O)COCCOCCNC(=O)COCCOCCNC(=O)CC[C@H](NC(=O)CCCCCCCCCCCCCCCCCCC(=O)O)C(=O)O)NC(=O)[C@H](CC(C)C)NC(=O)[C@H](CCCNC(=N)N)NC(=O)[C@H](CO)NC(=O)[C@@H](NC(=O)[C@H](CC(=O)O)NC(=O)[C@H](CO)NC(=O)[C@@H](NC(=O)[C@H](Cc1ccccc1)NC(=O)[C@@H](NC(=O)CNC(=O)[C@H](CCC(=O)O)NC(=O)C(C)(C)NC(=O)[C@@H](N)Cc1c[nH]cn1)[C@@H](C)O)[C@@H](C)O)C(C)C)C(=O)N[C@@H](CCC(=O)O)C(=O)N[C@@H](Cc1c[nH]cn1)C(=O)N[C@@H](CC(C)C)C(=O)N[C@H](C(N)=O)C(C)C` [compound 2] (H-H[Aib]EGTFTSDVSRLK([AEEA-AEEA-γGlu-C20 diacid])EFAAAQRFLEHLV-NH2) the same measures were 6431, 0.0794 nM, 501 nM, 89647 and 0.08.
As for `CC(C)C[C@H](NC(=O)[C@H](Cc1ccccc1)NC(=O)[C@H](CCCNC(=N)N)NC(=O)[C@H](CCC(N)=O)NC(=O)[C@H](CC(C)C)NC(=O)C(C)(C)NC(=O)[C@H](C)NC(=O)[C@H](CCC(=O)O)NC(=O)[C@H](CCC(=O)O)NC(=O)[C@H](CCCCNC(=O)COCCOCCNC(=O)COCCOCCNC(=O)CC[C@H](NC(=O)CCCCCCCCCCCCCCCCCCC(=O)O)C(=O)O)NC(=O)[C@H](CC(C)C)NC(=O)[C@H](Cc1ccc(O)cc1)NC(=O)[C@H](CO)NC(=O)[C@@H](NC(=O)[C@H](CC(=O)O)NC(=O)[C@H](CO)NC(=O)[C@@H](NC(=O)[C@H](Cc1ccccc1)NC(=O)[C@@H](NC(=O)CNC(=O)[C@H](CCC(N)=O)NC(=O)C(C)(C)NC(=O)[C@@H](N)Cc1c[nH]cn1)[C@@H](C)O)[C@@H](C)O)C(C)C)C(=O)N[C@@H](CCC(=O)O)C(=O)N[C@@H](Cc1c[nH]cn1)C(=O)N[C@@H](CC(C)C)C(=O)N[C@H](C(N)=O)C(C)C` [compound 156] (H-H[Aib]QGTFTSDVSYLK([AEEA-AEEA-γGlu-C20 diacid])EEA[Aib]LQRFLEHLV-NH2), the “SCTR EC50/GLP1R EC50 ratio” value on GLP1R (selectivity for hGLP1R over hSCTR, cAMP accumulation in CHO-K1 cells) was 2941711. The Fibril formation in data set [1] is listed as 3949. For the same molecule, the “Turbidity (pH 7)” value in data set [2] is 0.08.

B1: SEQ ID NO: 186 (peptide)
peptide: H[Aib]EGTFTSDWSRLLEGAALQRFIQWLV-NH2
modifications: N-terminus assumed
SMILES: CC[C@H](C)[C@H](NC(=O)[C@H](Cc1ccccc1)NC(=O)[C@H](CCCNC(=N)N)NC(=O)[C@H](CCC(N)=O)NC(=O)[C@H](CC(C)C)NC(=O)[C@H](C)NC(=O)[C@H](C)NC(=O)CNC(=O)[C@H](CCC(=O)O)NC(=O)[C@H](CC(C)C)NC(=O)[C@H](CC(C)C)NC(=O)[C@H](CCCNC(=N)N)NC(=O)[C@H](CO)NC(=O)[C@H](Cc1c[nH]c2ccccc12)NC(=O)[C@H](CC(=O)O)NC(=O)[C@H](CO)NC(=O)[C@@H](NC(=O)[C@H](Cc1ccccc1)NC(=O)[C@@H](NC(=O)CNC(=O)[C@H](CCC(=O)O)NC(=O)C(C)(C)NC(=O)[C@@H](N)Cc1c[nH]cn1)[C@@H](C)O)[C@@H](C)O)C(=O)N[C@@H](CCC(N)=O)C(=O)N[C@@H](Cc1c[nH]c2ccccc12)C(=O)N[C@@H](CC(C)C)C(=O)N[C@H](C(N)=O)C(C)C
B1: in data set [3], the “pEC50 hSCTR” value is 8.2 -log M.

B2: SEQ ID NO: 194 (peptide)
peptide: H[Aib]EGTFTSDYSRLLEGAALQRFIQWLV-NH2
modifications: N-terminus assumed
SMILES: CC[C@H](C)[C@H](NC(=O)[C@H](Cc1ccccc1)NC(=O)[C@H](CCCNC(=N)N)NC(=O)[C@H](CCC(N)=O)NC(=O)[C@H](CC(C)C)NC(=O)[C@H](C)NC(=O)[C@H](C)NC(=O)CNC(=O)[C@H](CCC(=O)O)NC(=O)[C@H](CC(C)C)NC(=O)[C@H](CC(C)C)NC(=O)[C@H](CCCNC(=N)N)NC(=O)[C@H](CO)NC(=O)[C@H](Cc1ccc(O)cc1)NC(=O)[C@H](CC(=O)O)NC(=O)[C@H](CO)NC(=O)[C@@H](NC(=O)[C@H](Cc1ccccc1)NC(=O)[C@@H](NC(=O)CNC(=O)[C@H](CCC(=O)O)NC(=O)C(C)(C)NC(=O)[C@@H](N)Cc1c[nH]cn1)[C@@H](C)O)[C@@H](C)O)C(=O)N[C@@H](CCC(N)=O)C(=O)N[C@@H](Cc1c[nH]c2ccccc12)C(=O)N[C@@H](CC(C)C)C(=O)N[C@H](C(N)=O)C(C)C
B2: in data set [3], the “pEC50 hSCTR” value was 8.8 -log M.
